Experimental data taken from ChEMBL document CHEMBL4004849, “Tetrazolylmethyl quinolines: Design, docking studies, synthesis, anticancer and antifungal analyses” (2017).
In brackets after ≈: the same amount, converted by molar mass. Activity calls are given as the source filed them. No cut-off for these calls is given here.

Columns and labels:
Format in all cases: functional
UACC-62 = assay: Growth inhibition of human UACC62 cells at 10^-5 M incubated for 48 hrs by sulforhodamine B assay relative to control
SNB-19 = assay: Growth inhibition of human SNB19 cells at 10^-5 M incubated for 48 hrs by sulforhodamine B assay relative to control
NCI/ADR-RES = assay: Growth inhibition of human NCI-ADR-RES cells at 10^-5 M incubated for 48 hrs by sulforhodamine B assay relative to control
SK-MEL-2 = assay: Growth inhibition of human SK-MEL-2 cells at 10^-5 M incubated for 48 hrs by sulforhodamine B assay relative to control
Candida albicans [1] = assay: Antifungal activity against Candida albicans at 100 ug/ml by disc diffusion method; settings: read-out: IZ
NCI-H460 = assay: Growth inhibition of human NCI-H460 cells at 10^-5 M incubated for 48 hrs by sulforhodamine B assay relative to control
BT-549 = assay: Growth inhibition of human BT549 cells at 10^-5 M incubated for 48 hrs by sulforhodamine B assay relative to control
NCI-H522 = assay: Growth inhibition of human NCI-H522 cells at 10^-5 M incubated for 48 hrs by sulforhodamine B assay relative to control
NCI-H23 = assay: Growth inhibition of human NCI-H23 cells at 10^-5 M incubated for 48 hrs by sulforhodamine B assay relative to control
MOLT-4 = assay: Growth inhibition of human MOLT4 cells at 10^-5 M incubated for 48 hrs by sulforhodamine B assay relative to control
HCT-116 = assay: Growth inhibition of human HCT116 cells at 10^-5 M incubated for 48 hrs by sulforhodamine B assay relative to control
HL-60(TB) = assay: Growth inhibition of human HL-60(TB) cells at 10^-5 M incubated for 48 hrs by sulforhodamine B assay relative to control
A549 = assay: Growth inhibition of human A549/ATCC cells at 10^-5 M incubated for 48 hrs by sulforhodamine B assay relative to control
IGROV-1 = assay: Growth inhibition of human IGROV1 cells at 10^-5 M incubated for 48 hrs by sulforhodamine B assay relative to control
MCF7 = assay: Growth inhibition of human MCF7 cells at 10^-5 M incubated for 48 hrs by sulforhodamine B assay relative to control
U-251 = assay: Growth inhibition of human U251 cells at 10^-5 M incubated for 48 hrs by sulforhodamine B assay relative to control
UACC-257 = assay: Growth inhibition of human UACC257 cells at 10^-5 M incubated for 48 hrs by sulforhodamine B assay relative to control
MDA-MB-468 = assay: Growth inhibition of human MDA-MB-468 cells at 10^-5 M incubated for 48 hrs by sulforhodamine B assay relative to control
OVCAR-5 = assay: Growth inhibition of human OVCAR5 cells at 10^-5 M incubated for 48 hrs by sulforhodamine B assay relative to control
MDA-MB-435 = assay: Growth inhibition of human MDA-MB-435 cells at 10^-5 M incubated for 48 hrs by sulforhodamine B assay relative to control
CAKI-1 = assay: Growth inhibition of human Caki1 cells at 10^-5 M incubated for 48 hrs by sulforhodamine B assay relative to control
RXF 393 = assay: Growth inhibition of human RXF393 cells at 10^-5 M incubated for 48 hrs by sulforhodamine B assay relative to control
UO-31 = assay: Growth inhibition of human UO31 cells at 10^-5 M incubated for 48 hrs by sulforhodamine B assay relative to control
Aspergillus fumigatus = assay: Antifungal activity against Aspergillus fumigatus after 24 hrs by serial dilution method
SF-268 = assay: Growth inhibition of human SF268 cells at 10^-5 M incubated for 48 hrs by sulforhodamine B assay relative to control
Candida albicans [2] = assay: Antifungal activity against Candida albicans after 24 hrs by serial dilution method
SK-OV-3 = assay: Growth inhibition of human SKOV3 cells at 10^-5 M incubated for 48 hrs by sulforhodamine B assay relative to control
DU-145 = assay: Growth inhibition of human DU145 cells at 10^-5 M incubated for 48 hrs by sulforhodamine B assay relative to control
T47D = assay: Growth inhibition of human T47D cells at 10^-5 M incubated for 48 hrs by sulforhodamine B assay relative to control
SN12C = assay: Growth inhibition of human SN12C cells at 10^-5 M incubated for 48 hrs by sulforhodamine B assay relative to control
NCI-H226 = assay: Growth inhibition of human NCI-H226 cells at 10^-5 M incubated for 48 hrs by sulforhodamine B assay relative to control
HCT-15 = assay: Growth inhibition of human HCT15 cells at 10^-5 M incubated for 48 hrs by sulforhodamine B assay relative to control
HT-29 = assay: Growth inhibition of human HT-29 cells at 10^-5 M incubated for 48 hrs by sulforhodamine B assay relative to control
Malme-3M = assay: Growth inhibition of human MALME-3M cells at 10^-5 M incubated for 48 hrs by sulforhodamine B assay relative to control
OVCAR-3 = assay: Growth inhibition of human OVCAR3 cells at 10^-5 M incubated for 48 hrs by sulforhodamine B assay relative to control
SK-MEL-28 = assay: Growth inhibition of human SK-MEL-28 cells at 10^-5 M incubated for 48 hrs by sulforhodamine B assay relative to control
OVCAR-8 = assay: Growth inhibition of human OVCAR8 cells at 10^-5 M incubated for 48 hrs by sulforhodamine B assay relative to control
SK-MEL-5 = assay: Growth inhibition of human SK-MEL-5 cells at 10^-5 M incubated for 48 hrs by sulforhodamine B assay relative to control
SR = assay: Growth inhibition of human SR cells at 10^-5 M incubated for 48 hrs by sulforhodamine B assay relative to control
SW-620 = assay: Growth inhibition of human SW620 cells at 10^-5 M incubated for 48 hrs by sulforhodamine B assay relative to control
K562 = assay: Growth inhibition of human K562 cells at 10^-5 M incubated for 48 hrs by sulforhodamine B assay relative to control
COLO 205 = assay: Growth inhibition of human COLO205 cells at 10^-5 M incubated for 48 hrs by sulforhodamine B assay relative to control
M14 = assay: Growth inhibition of human M14 cells at 10^-5 M incubated for 48 hrs by sulforhodamine B assay relative to control
HCC 2998 = assay: Growth inhibition of human HCC2998 cells at 10^-5 M incubated for 48 hrs by sulforhodamine B assay relative to control

Structure (SMILES): COc1ccc2nc(Cl)c(Cn3nnnc3CSc3ccccc3)cc2c1
- growth inhibition (GI) (UACC-62): Active
- growth inhibition (GI) (SNB-19): Active
- growth inhibition (GI) (NCI/ADR-RES): Active
- growth inhibition (GI) (SK-MEL-2): Active
- zone of inhibition at 100 µg/mL (Candida albicans [1]): 18 mm
- growth inhibition (GI) (NCI-H460): Active
- growth inhibition (GI) (BT-549): Active
- growth inhibition (GI) (NCI-H522): Active
- growth inhibition (GI) (NCI-H23): Active
- growth inhibition (GI) (MOLT-4): Active
- growth inhibition (GI) (HCT-116): Active
- growth inhibition (GI) (HL-60(TB)): Active
- growth inhibition (GI) (A549): Active
- growth inhibition (GI) (IGROV-1): Active
- growth inhibition (GI) (MCF7): Active
- growth inhibition (GI) (U-251): Active
- growth inhibition (GI) (UACC-257): Active
- growth inhibition (GI) (MDA-MB-468): Active
- growth inhibition (GI) (OVCAR-5): Active
- growth inhibition (GI) (MDA-MB-435): Active
- growth inhibition (GI) (CAKI-1): Active
- growth inhibition (GI) (RXF 393): Active
- growth inhibition (GI) (UO-31): Active
- MIC (Aspergillus fumigatus): 10 µg/mL (≈ 25.1 µM)
- growth inhibition (GI) (SF-268): Active
- MIC (Candida albicans [2]): 25 µg/mL (≈ 62.8 µM)
- growth inhibition (GI) (SK-OV-3): Active
- growth inhibition (GI) (DU-145): Active
- growth inhibition (GI) (T47D): Active
- growth inhibition (GI) (SN12C): Active
- growth inhibition (GI) (NCI-H226): Active
- growth inhibition (GI) (HCT-15): Active
- growth inhibition (GI) (HT-29): Active
- growth inhibition (GI) (Malme-3M): Active
- growth inhibition (GI) (OVCAR-3): Active
- growth inhibition (GI) (SK-MEL-28): Active
- growth inhibition (GI) (OVCAR-8): Active
- growth inhibition (GI) (SK-MEL-5): Active
- growth inhibition (GI) (SR): Active
- growth inhibition (GI) (SW-620): Active
- growth inhibition (GI) (K562): Active
- growth inhibition (GI) (COLO 205): Active
- growth inhibition (GI) (M14): Active
- growth inhibition (GI) (HCC 2998): Active
